Measurements reported in US20230081426A1, “COMPOUNDS AND METHODS FOR KRAS MODULATION AND INDICATIONS THEREFOR” (Plexxikon Inc., priority 2020, published 2023).

Assays:
[1] = target: T1, G12D-mutant human KRAS (amino acid residues 1-188) (Homo sapiens, UniProt P01116, G12D); assay: KRAS Binding Disruption Assay (AlphaScreen; biotinylated KRpep-2d analogue or RAF1-RBD), G12D; conditions: KRAS G12D; geometric mean; read-out: KRAS GMean IC50 (uM) MUTATION: G12D
T1 construct: G12D or G12C-mutant human KRAS (amino acid residues 1-188) with FLAG tag; made in house; host or cells: E. coli
Procedure, shortened: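 Compounds are titrated against 5-20 nM mutant KRAS and 5-20 nM of either a biotinylated KRpep-2d analogue or RAF1-RBD, incubated 1 h at 25° C. Disruption is detected as reduced Alpha signal after 1 h with donor and acceptor beads at 10 μg/mL.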

[2] = target: T2, G12V-mutant human KRAS (amino acid residues 1-188) (Homo sapiens, UniProt P01116, G12V); assay: KRAS Binding Competition Assay (AlphaScreen; biotinylated KRpep-2d analogue), G12V; conditions: geometric mean, read-out: KRAS GMean IC50 (uM) MUTATION: G12V
T2 construct: G12V-mutant human KRAS (amino acid residues 1-188) with FLAG tag was purified from E. coli; made in house; host or cells: E. coli

Row | Structure (SMILES) | IC50 [1] | IC50 [2]
1 | CN(C)c1ccc(Oc2nc(N3C[C@H]4CC[C@@H](C3)N4)c3cc(Cl)c(-c4c(O)cccc4F)c(F)c3n2)cc1 [P-0361, 2-(4-((1R,5S)-3,8-diazabicyclo[3.2.1]octan-3-yl)-6-chloro-2-(4-(dimethylamino)phenoxy)-8-fluoroquinazolin-7-yl)-3-fluorophenol] | 0.0001 to 10 µM | 0.0001 to 10 µM
2 | CN(C)c1cccc(/C=C/c2nc(N3C[C@H]4CC[C@@H](C3)N4)c3cc(Cl)c(-c4c(O)cccc4F)c(F)c3n2)c1 [P-0362, 2-(4-((1R,5S)-3,8-diazabicyclo[3.2.1]octan-3-yl)-6-chloro-2-((E)-3-(dimethylamino)styryl)-8-fluoroquinazolin-7-yl)-3-fluorophenol] | 0.0001 to 10 µM | 0.0001 to 10 µM
3 | CN(C)c1cccc(CCc2nc(N3C[C@H]4CC[C@@H](C3)N4)c3cc(Cl)c(-c4c(O)cccc4F)c(F)c3n2)c1 [P-0363, 2-(4-((1R,5S)-3,8-diazabicyclo[3.2.1]octan-3-yl)-6-chloro-2-(3-(dimethylamino)phenethyl)-8-fluoroquinazolin-7-yl)-3-fluorophenol] | 0.0001 to 10 µM | 0.0001 to 10 µM
4 | CN(C)c1cccc(COc2nc(N3C[C@H]4CC[C@@H](C3)N4)c3cc(Cl)c(-c4c(O)cccc4F)c(F)c3n2)c1 [P-0364, 2-(4-((1R,5S)-3,8-diazabicyclo[3.2.1]octan-3-yl)-6-chloro-2-((3-(dimethylamino)benzyl)oxy)-8-fluoroquinazolin-7-yl)-3-fluorophenol] | 0.0001 to 10 µM | 0.0001 to 10 µM
5 | CN1CCC[C@H]1COc1nc(N2C[C@H]3CC[C@@H](C2)N3C(=O)CC#N)c2ccc(-c3cc(O)cc4ccccc34)cc2n1 [P-0368, 3-((1R,5S)-3-(7-(3-hydroxynaphthalen-1-yl)-2-(((S)-1-methylpyrrolidin-2-yl)methoxy)quinazolin-4-yl)-3,8-diazabicyclo[3.2.1]octan-8-yl)-3-oxopropanenitrile] | 0.0001 to 10 µM | 0.0001 to 10 µM
6 | CN1C(=O)C(CC(=O)N2[C@@H]3CC[C@H]2CN(c2nc(OC[C@@H]4CCCN4C)nc4cc(-c5cc(O)cc6ccccc56)ccc24)C3)N(C)C1=O (stereo partly drawn) [P-0369, 5-(2-((1R,5S)-3-(7-(3-hydroxynaphthalen-1-yl)-2-(((S)-1-methylpyrrolidin-2-yl)methoxy)quinazolin-4-yl)-3,8-diazabicyclo[3.2.1]octan-8-yl)-2-oxoethyl)-1,3-dimethylimidazolidine-2,4-dione] | 0.0001 to 10 µM | 10 to 100 µM
7 | CN1CCC[C@H]1COc1nc(N2C[C@H]3CC[C@@H](C2)N3C(=O)CC2SC(N)=NC2=O)c2ccc(-c3cc(O)cc4ccccc34)cc2n1 (stereo partly drawn) [P-0370, 2-amino-5-(2-((1R,5S)-3-(7-(3-hydroxynaphthalen-1-yl)-2-(((S)-1-methylpyrrolidin-2-yl)methoxy)quinazolin-4-yl)-3,8-diazabicyclo[3.2.1]octan-8-yl)-2-oxoethyl)thiazol-4(5H)-one] | 0.0001 to 10 µM | 0.0001 to 10 µM
8 | CN1CCC[C@H]1COc1nc(N2C[C@H]3CC[C@@H](C2)N3C(=O)CC2CCNC2=O)c2ccc(-c3cc(O)cc4ccccc34)cc2n1 (stereo partly drawn) [P-0371, 3-(2-((1R,5S)-3-(7-(3-hydroxynaphthalen-1-yl)-2-(((S)-1-methylpyrrolidin-2-yl)methoxy)quinazolin-4-yl)-3,8-diazabicyclo[3.2.1]octan-8-yl)-2-oxoethyl)pyrrolidin-2-one] | 10 to 100 µM | 10 to 100 µM
9 | Fc1cc2c(N3C[C@H]4CC[C@@H](C3)N4)nc(OCC34CCCN3CCC4)nc2c(F)c1-c1c[nH]c2ccccc12 [P-0372, 4-((1R,5S)-3,8-diazabicyclo[3.2.1]octan-3-yl)-6,8-difluoro-7-(1H-indol-3-yl)-2-((tetrahydro-1H-pyrrolizin-7a(5H)-yl)methoxy)quinazoline] | 0.0001 to 10 µM | 10 to 100 µM
10 | Fc1cc2c(N3C[C@H]4CC[C@@H](C3)N4)nc(OCC34CCCN3CCC4)nc2c(F)c1-c1c[nH]c2ccc(Cl)cc12 [P-0373, 4-((1R,5S)-3,8-diazabicyclo[3.2.1]octan-3-yl)-7-(5-chloro-1H-indol-3-yl)-6,8-difluoro-2-((tetrahydro-1H-pyrrolizin-7a(5H)-yl)methoxy)quinazoline] | 0.0001 to 10 µM | 10 to 100 µM

Second part, the molecule after the results:

Row | IC50 [1] | IC50 [2] | Structure (SMILES)
11 | 0.0001 to 10 µM | 0.0001 to 10 µM | O=C(Cc1c[nH]c(=O)[nH]c1=O)N1[C@@H]2CC[C@H]1CN(c1nc(OCC34CCCN3CCC4)nc3c(F)c(-c4cc(O)cc5ccccc45)ccc13)C2 [P-0374, 5-(2-((1R,5S)-3-(8-fluoro-7-(3-hydroxynaphthalen-1-yl)-2-((tetrahydro-1H-pyrrolizin-7a(5H)-yl)methoxy)quinazolin-4-yl)-3,8-diazabicyclo[3.2.1]octan-8-yl)-2-oxoethyl)pyrimidine-2,4(1H,3H)-dione]
12 | 0.0001 to 10 µM | 0.0001 to 10 µM | CN1CC[C@@H](NS(=O)(=O)N2[C@@H]3CC[C@H]2CN(c2nc(OC[C@@H]4CCCN4C)nc4c(F)c(-c5cc(O)cc6ccccc56)ccc24)C3)C1 [P-0376, (1R,5S)-3-(8-fluoro-7-(3-hydroxynaphthalen-1-yl)-2-(((S)-1-methylpyrrolidin-2-yl)methoxy)quinazolin-4-yl)-N-((R)-1-methylpyrrolidin-3-yl)-3,8-diazabicyclo[3.2.1]octane-8-sulfonamide]
13 | 0.0001 to 10 µM | 0.0001 to 10 µM | CN1CCC[C@H]1COc1nc(N2C[C@H]3CC[C@@H](C2)N3S(=O)(=O)N2CCOC2=O)c2ccc(-c3cc(O)cc4ccccc34)c(F)c2n1 [P-0377, 3-(((1R,5S)-3-(8-fluoro-7-(3-hydroxynaphthalen-1-yl)-2-(((S)-1-methylpyrrolidin-2-yl)methoxy)quinazolin-4-yl)-3,8-diazabicyclo[3.2.1]octan-8-yl)sulfonyl)oxazolidin-2-one]
14 | 0.0001 to 10 µM | 10 to 100 µM | CN1CCC[C@H]1COc1nc(N2C[C@H]3CC[C@@H](C2)N3)c2ccc(-c3nc(N)cc4ccccc34)c(F)c2n1 [P-0378, 1-(4-((1R,5S)-3,8-diazabicyclo[3.2.1]octan-3-yl)-8-fluoro-2-(((S)-1-methylpyrrolidin-2-yl)methoxy)quinazolin-7-yl)isoquinolin-3-amine]
15 | 10 to 100 µM | 100 to 1000 µM | CN1CCC[C@H]1COc1nc(N2C[C@H]3CC[C@@H](C2)N3)c2ccc(-c3nc(N)cc4cccnc34)c(F)c2n1 [P-0379, 8-(4-((1R,5S)-3,8-diazabicyclo[3.2.1]octan-3-yl)-8-fluoro-2-(((S)-1-methylpyrrolidin-2-yl)methoxy)quinazolin-7-yl)-1,7-naphthyridin-6-amine]
16 | 0.0001 to 10 µM | 10 to 100 µM | CN(C)CCCS(=O)(=O)N1[C@@H]2CC[C@H]1CN(c1nc(OC[C@@H]3CCCN3C)nc3c(F)c(-c4cc(O)cc5ccccc45)ccc13)C2 [P-0380, 4-(4-((1R,5S)-8-((3-(dimethylamino)propyl)sulfonyl)-3,8-diazabicyclo[3.2.1]octan-3-yl)-8-fluoro-2-(((S)-1-methylpyrrolidin-2-yl)methoxy)quinazolin-7-yl)naphthalen-2-ol]
17 | 0.0001 to 10 µM | 100 to 1000 µM | Oc1cc(-c2ccc3c(N4C[C@H]5CC[C@@H](C4)N5)nc(N4CC5CCC(C4)N5)nc3c2F)c2ccccc2c1 [P-0381, 4-(4-((1R,5S)-3,8-diazabicyclo[3.2.1]octan-3-yl)-2-(3,8-diazabicyclo[3.2.1]octan-3-yl)-8-fluoroquinazolin-7-yl)naphthalen-2-ol]
18 | 0.0001 to 10 µM | 0.0001 to 10 µM | CN1CCC[C@H]1COc1nc(N2C[C@H]3CC[C@@H](C2)N3C(=O)CCn2ccnc2)c2ccc(-c3cc(O)cc4ccccc34)cc2n1 [P-0382, 1-((1R,5S)-3-(7-(3-hydroxynaphthalen-1-yl)-2-(((S)-1-methylpyrrolidin-2-yl)methoxy)quinazolin-4-yl)-3,8-diazabicyclo[3.2.1]octan-8-yl)-3-(1H-imidazol-1-yl)propan-1-one]
19 | 10 to 100 µM | 0.0001 to 10 µM | CN1CCC[C@H]1COc1nc(N2C[C@H]3CC[C@@H](C2)N3C(=O)CCC#N)c2ccc(-c3cc(O)cc4ccccc34)cc2n1 [P-0383, 4-((1R,5S)-3-(7-(3-hydroxynaphthalen-1-yl)-2-(((S)-1-methylpyrrolidin-2-yl)methoxy)quinazolin-4-yl)-3,8-diazabicyclo[3.2.1]octan-8-yl)-4-oxobutanenitrile]
20 | 0.0001 to 10 µM | 10 to 100 µM | CN1CCC[C@H]1COc1nc(N2C[C@H]3CC[C@@H](C2)N3)c2ccc(-c3cc(O)c(F)c4ccccc34)cc2n1 [P-0385, 4-(4-((1R,5S)-3,8-diazabicyclo[3.2.1]octan-3-yl)-2-(((S)-1-methylpyrrolidin-2-yl)methoxy)quinazolin-7-yl)-1-fluoronaphthalen-2-ol]
21 | 0.0001 to 10 µM | 0.0001 to 10 µM | CN1C(=O)C(CC(=O)N2[C@@H]3CC[C@H]2CN(c2nc(OCC45CCCN4CCC5)nc4c(F)c(-c5cc(O)cc6ccccc56)ccc24)C3)N(C)C1=O (stereo partly drawn) [P-0386, 5-(2-((1R,5S)-3-(8-fluoro-7-(3-hydroxynaphthalen-1-yl)-2-((tetrahydro-1H-pyrrolizin-7a(5H)-yl)methoxy)quinazolin-4-yl)-3,8-diazabicyclo[3.2.1]octan-8-yl)-2-oxoethyl)-1,3-dimethylimidazolidine-2,4-dione]
22 | 0.0001 to 10 µM | 0.0001 to 10 µM | Cc1[nH][nH]c(=O)c1CC(=O)N1[C@@H]2CC[C@H]1CN(c1nc(OCC34CCCN3CCC4)nc3c(F)c(-c4cc(O)cc5ccccc45)ccc13)C2 [P-0388, 4-(2-((1R,5S)-3-(8-fluoro-7-(3-hydroxynaphthalen-1-yl)-2-((tetrahydro-1H-pyrrolizin-7a(5H)-yl)methoxy)quinazolin-4-yl)-3,8-diazabicyclo[3.2.1]octan-8-yl)-2-oxoethyl)-5-methyl-1,2-dihydro-3H-pyrazol-3-one]
